Where two headings read alike, the source gives them in different places.
Tests used:
DENVGFP = assay: microbe, parasite or virus in culture; format: cell-based, dengue virus
AGS cells = assay: MTT viability test, AGS cells; format: cell-based; conditions: for effect on AGS cell viability: 0.5 to 50 µM, 24 and 48 h; for IC50: Homo sapiens, AGS; for cytotoxic activity on AGS cells: in words
Protocol: (§3) The potential cytotoxic activity of P. maritimum alkaloids was evaluated on Hacat, A431 and AGS cells treated with concentrations ranging from 0.5 to 10 µM for 24 and 48 h by measuring the reduction of 3-(4,5-dimethylthiazol-2) 2,5- diphenyltetrazolium bromide (MTT) to formazan by the mitochondrial enzyme succinate dehydrogenase.
(§4) HaCaT, spontaneously immortalized keratinocytes from adult skin, and AGS gastric adenocarcinoma cells were purchased from Service Cell Line (GmBH, Eppelheim, CLS, Germany). A431 (ATCC-CRL1555) human epidermoid carcinoma cells were from American Type Culture Collection (ATCC, Manassas, VA, USA). All mentioned cell lines were cultured in Dulbecco’s Modified Eagle’s Medium (DMEM, Sigma Chemical Co., St. Louis, MO, USA) supplemented with 10% fetal bovine serum (FBS, Hyclone Laboratories, Inc. Logan, UT, USA) at 37 °C in a humidified atmosphere of 5% CO2. Absence of mycoplasma contamination was verified for all cell lines. The purified alkaloids were resuspended in DMSO and added to the cell medium at concentrations varying from 0.5 to 50 µM as indicated.
Cell viability was evaluated by measuring the reduction of 3-(4,5-dimethylthiazol-2) 2,5-diphenyltetrazolium bromide (MTT) to formazan by the mitochondrial enzyme succinate dehydrogenase. Briefly, 10 × 10^3 cells were seeded on 96-well plates and exposed to different concentrations of total extract or metabolites for 48 h. and 72 h. MTT/PBS solution (0.5 mg/mL) was then added to the wells and incubated for 3 h at 37 °C in a humidified atmosphere. The reaction was stopped by removal of the supernatant followed by dissolving the formazan product in acidic isopropanol and the optical density was measured with Synergy H4 microplate reader Gen5 2.07 (Thermofisher, Waltham, MA, USA) using a 570 nm filter. Under these experimental conditions, no undissolved formazan crystals were observed. Cell viability was assessed by comparing the optical density of the treated samples compared to the controls. […] Data were represented as the mean standard deviation and analyzed for statistical significance using ordinary one-way analysis of variance (ANOVA) and multiple comparisons. For all tests, p < 0.05 was considered to indicate a statistically significant difference.

[1] = Cytotoxicity in THP-1 cells (ATP levels, Cell-Titer GLO); conditions: human
Protocol: (§1) To account for non-specific antiviral activity caused by enhanced cell death, the cytotoxicity of P. maritimum isolated AAs was first determined in THP-1 and Huh7 virus-targeted cell lines exposed to concentrations ranging from 0.05 to 200 µM for 72 h. Cell viability was measured using ATP levels as a marker.
(§2) The monocytic cell line THP-1 derived from an acute monocytic leukemia patient was used in HIV-1GFP infection assays, while the hepatocyte-derived carcinoma cell line Huh7 was used with DENVGFP. Cell viability was evaluated using the Cell-Titer GLO assay kit (Promega, Madison, WI, USA) as previously described. Briefly, 7.5 × 10^3 Huh7 cells/well or 4 × 10^4 THP-1 cells/well were seeded in 96-well dark plates and treated with isolated AAs dissolved in methanol at concentrations ranging from 0.05 to 200 µM for 72 h. Afterwards, Cell-Titer GLO reagent was added in each well of room temperature-equilibrated plates. Luminescence was measured 10 min after shaking the plates for 2 min using a microplate spectrophotometer (Synergy H1, Biotek, Québec, QC, Canada). The percentage of viable cells was calculated at each concentration relatively to cells treated with matched concentrations of MetOH.

Huh7 cells = assay: Cytotoxicity in Huh7 cells (ATP levels, Cell-Titer GLO)
Protocol: as §1, §2

[2] = as above; conditions: human
Protocol: as §1, §2

[3] = system: VSV-G-pseudotyped HIV-1GFP; assay: cells; format: cell-based, human immunodeficiency virus-1; conditions: for EC50: read-out: EC50 HIVGFP
Hacat cells [4] = conditions: for reduction of Hacat cell viability: 10 µM, 24 h of treatment, MTT; for cytotoxic activity on Hacat cells: in words
Protocol: as §3, §4
(§5) Cell viability was evaluated by measuring the reduction of 3-(4,5-dimethylthiazol-2) 2,5-diphenyltetrazolium bromide (MTT) to formazan by the mitochondrial enzyme succinate dehydrogenase. Briefly, 10 × 10^3 cells were seeded on 96-well plates and exposed to different concentrations of total extract or metabolites for 48 h. and 72 h. MTT/PBS solution (0.5 mg/mL) was then added to the wells and incubated for 3 h at 37 °C in a humidified atmosphere. The reaction was stopped by removal of the supernatant followed by dissolving the formazan product in acidic isopropanol and the optical density was measured with Synergy H4 microplate reader Gen5 2.07 (Thermofisher, Waltham, MA, USA) using a 570 nm filter. Under these experimental conditions, no undissolved formazan crystals were observed. Cell viability was assessed by comparing the optical density of the treated samples compared to the controls. Statistical analyses were carried out using the GraphPad Prism version 8.1.2 (https://www.graphpad.com/scientific-software/prism/ (accessed on 18 December 2021)). Data were represented as the mean standard deviation and analyzed for statistical significance using ordinary one-way analysis of variance (ANOVA) and multiple comparisons. For all tests, p < 0.05 was considered to indicate a statistically significant difference.

A431 cells [5] = conditions: for reduction of A431 cell viability: 10 µM, 24 h of treatment, MTT; for cytotoxic activity on A431 cells: in words
Protocol: as §3, §4, §5

THP-1 cells = assay: Cytotoxicity in THP-1 cells (ATP levels, Cell-Titer GLO); conditions: 72 h; for live THP-1 cells: 6.25 µM
Protocol: as §1, §2

A431 cells [6] = assay: cells; conditions: Homo sapiens, A-431, read-out: IC50 A431
Protocol: as §3, §4, §5

Hacat cells [7] = assay: cells; conditions: Homo sapiens, read-out: IC50 Hacat
Protocol: as §3, §4, §5

[8] = Dengue virus, Huh-7, 72 h, read-out: EC50 DENVGFP, Huh7 cells, MOI = 0.02, 72 h
[9] = read-out: EC50 DENVGFP, Huh7 cells, MOI = 0.02, 72 h
[10] = Dengue virus, Huh-7, read-out: EC50 DENV, Huh7 cells
[11] = MTT, time not stated, read-out: IC50 AGS

## COc1cc2c(cc1OC)[C@H]1[C@H]3C(=CC[C@H]1OC2=O)CCN3C [Homolycorine]
DENVGFP; [8]
  EC50: 65000 nM
DENVGFP; [9]
  EC50: 65000 nM

## COC1C=CC23c4cc5c(cc4C(OC(=O)c4ccc(Br)cc4)N(CC2OC(=O)c2ccc(Br)cc2)C3C1)OCO5 (centres unmarked) [compound 12, 6,11-O,O′-Di-p-Bromobenzoyl Ester of haemanthidine]
AGS cells; MTT
  effect on AGS cell viability: able to reduce AGS cell viability

## CO[C@@H]1C=C[C@@]23c4cc5c(cc4CN(CCc4ccc(O)cc4)[C@@H]2C(=O)N(C)[C@H]3C1)OCO5 [Obliquine]
[1]
  viability at 72 h, 100 µM: 55.3%
[1]; CC50 THP-1, 72 h, ATP levels
  CC50 at 72 h: 127 µM
Huh7 cells; 72 h
  concentration at which Huh7 cell viability is reduced: 100 µM
[2]; Huh7 hepatocyte-derived carcinoma cells
  viability at 72 h, 100 µM: 82.6%
DENVGFP; [8]
  EC50: 73600 nM
DENVGFP; [9]
  EC50: 73600 nM
[3]
  inhibition of HIV-1GFP, dose dependence: dose-dependent inhibition of HIV-1
[3]; Homo sapiens, THP-1, 72 h
  EC50: 153 µM

## CO[C@@H]1C=C[C@@]23c4cc5c(cc4CO[C@]2(O)CN(C)[C@H]3C1)OCO5 [Tazettine]
[1]
  viability at 72 h, 100 µM: 60.9%
[1]; CC50 THP-1, 72 h, ATP levels
  CC50 at 72 h: 137 µM
Huh7 cells; human, 72 h
  concentration at which Huh7 cell viability is reduced: higher than 50 µM
[2]
  viability at 72 h, 50 µM: 85.2%
DENVGFP; [8]
  EC50: 12500 nM
Hacat cells [4]
  reduction of Hacat cell viability: 15–30%
A431 cells [5]
  reduction of A431 cell viability: 15–30%
[3]
  inhibition of HIV-1GFP, dose dependence: dose-dependent inhibition of HIV-1
[3]; Homo sapiens, THP-1, 72 h
  EC50: 120 µM

## OC1C=C2C3CN(Cc4cc5c(cc43)OCO5)C2CC1O (centres unmarked) [Pancracine]
THP-1 cells
  live THP-1 cells: 82%
  concentration at which THP-1 cell viability begins to decrease: 3.125 µM
[1]; CC50 THP-1, 72 h, ATP levels
  CC50 at 72 h: 25.9 µM
Huh7 cells; 6.25 µM, 72 h
  live Huh7 cells: 78.1%
Huh7 cells; 72 h
  concentration at which Huh7 cell viability is reduced: 6.25 µM
DENVGFP; Huh7 cells
  DENVGFP inhibition at 1.56 µM: Complete inhibition
DENVGFP; [8]
  EC50: 358 nM
DENVGFP; [10]
  EC50: 357 nM
DENVGFP; [9]
  EC50: 360 nM
[3]
  HIV-1GFP inhibition at 100 µM: Complete viral inhibition
  inhibition of HIV-1GFP, dose dependence: dose-dependent inhibition of HIV-1
  EC50: 18.5 µM
[3]; Homo sapiens, THP-1, 72 h
  EC50: 18.5 µM

## O[C@@H]1C=C[C@]23CCN(Cc4cc5c(cc42)OCO5)[C@H]3C1 [Vittatine]
DENVGFP; [8]
  EC50: 15500 nM

## COC1C=CC23c4cc5c(cc4C(OC(=O)c4ccc(Br)cc4)N(CC2OC(=O)c2ccc(Br)cc2)C3C1)OCO5 (centres unmarked) [compound 11, 6,11-O,O′-Di-p-Bromobenzoyl Ester of haemanthidine]
AGS cells; MTT
  effect on AGS cell viability: able to reduce AGS cell viability

## Cc1nnc(C(=O)NC(C)(C)c2nc(C(=O)NCc3ccc(F)cc3)c(O)c(=O)n2C)o1 [Raltegravir, reference compound]
[3]
  HIV-1 infection with positive control: completely impeded HIV-1 infection

## COC1C=CC23c4cc5c(cc4CN(CC2O)C3C1)OCO5 (centres unmarked) [Haemanthamine]
THP-1 cells
  live THP-1 cells: 71%
  concentration at which THP-1 cell viability begins to decrease: 3.125 µM
THP-1 cells; read-out: CC50 THP-1, ATP levels
  CC50: 22.2 µM
[1]; CC50 THP-1, 72 h, ATP levels
  CC50 at 72 h: 22.2 µM
Huh7 cells; 3.125 µM, 72 h
  live Huh7 cells: 82.2%
Huh7 cells; 72 h
  concentration at which Huh7 cell viability is reduced: above 3.125 µM
DENVGFP; Huh7 cells
  DENVGFP inhibition at 1.56 µM: Complete inhibition
DENVGFP; [8]
  EC50: 340 nM
DENVGFP; [10]
  EC50: 337 nM
Hacat cells [4]
  reduction of Hacat cell viability: 15–30%
A431 cells [5]
  reduction of A431 cell viability: 15–30%
[3]
  HIV-1GFP inhibition at 100 µM: Complete viral inhibition
  inhibition of HIV-1GFP, dose dependence: dose-dependent inhibition of HIV-1
  EC50: 25.3 µM
[3]; Homo sapiens, THP-1, 72 h
  EC50: 25.3 µM
AGS cells; 24 h, read-out: IC50 AGS cells at 24 h
  IC50: 7.5 µM
AGS cells; MTT, 48 h, read-out: IC50 AGS cells at 48 h
  IC50: 7.5 µM
AGS cells; [11]
  IC50: 7.5 µM

## O[C@H]1[C@H]2c3cc4c(cc3CN3CCC(=C[C@@H]1O)[C@H]23)OCO4 [Lycorine]
THP-1 cells; human
  CC50: 4.61 µM
[1]; CC50 THP-1
  CC50 at 72 h: 4.6 µM
Huh7 cells; 0.78 µM, 72 h
  reduction of Huh7 viability: 21%
Huh7 cells; 1.56 µM
  reduction of Huh7 cell viability: 25%
DENVGFP; Huh7 cells
  DENVGFP inhibition at 1.56 µM: Complete inhibition
DENVGFP; [8]
  EC50: 386 nM
DENVGFP; [9]
  EC50: 390 nM
Hacat cells [4]
  cytotoxic activity on Hacat cells: showed cytotoxic activity
A431 cells [5]
  cytotoxic activity on A431 cells: showed cytotoxic activity
[3]
  HIV-1GFP inhibition at 100 µM: Complete viral inhibition
  inhibition of HIV-1GFP, dose dependence: dose-dependent inhibition of HIV-1
[3]; Homo sapiens, THP-1, 72 h
  EC50: 10.9 µM
AGS cells; [11]
  IC50: < 0.5 µM
AGS cells
  cytotoxic activity on AGS cells: showed cytotoxic activity
A431 cells [6]
  IC50: 500 nM
Hacat cells [7]
  IC50: 500 nM

## CO[C@@H]1C=C[C@@]23c4cc5c(cc4C(O)N(C[C@@H]2O)[C@H]3C1)OCO5 (some centres unmarked) [Haemanthidine]
THP-1 cells
  live THP-1 cells: 71%
  concentration at which THP-1 cell viability begins to decrease: 3.125 µM
[1]; CC50 THP-1, 72 h, ATP levels
  CC50 at 72 h: 16.8 µM
Huh7 cells; 6.25 µM, 72 h
  live Huh7 cells: 83.3%
Huh7 cells; 72 h
  concentration at which Huh7 cell viability is reduced: 6.25 µM
DENVGFP; Huh7 cells
  DENVGFP inhibition at 1.56 µM: Complete inhibition
DENVGFP; [8]
  EC50: 480 nM
DENVGFP; [10]
  EC50: 476 nM
Hacat cells [4]
  reduction of Hacat cell viability: 15–30%
  cytotoxic activity on Hacat cells: showed cytotoxic activity
A431 cells [5]
  reduction of A431 cell viability: 15–30%
  cytotoxic activity on A431 cells: showed cytotoxic activity
[3]
  HIV-1GFP inhibition at 100 µM: Complete viral inhibition
  inhibition of HIV-1GFP, dose dependence: dose-dependent inhibition of HIV-1
  EC50: 12.7 µM
[3]; Homo sapiens, THP-1, 72 h
  EC50: 12.7 µM
AGS cells; [11]
  IC50: 5 µM
AGS cells
  cytotoxic activity on AGS cells: showed cytotoxic activity

## OC1C=CC23c4cc5c(cc4CN(CC2O)C3C1)OCO5 (centres unmarked) [11-Hydroxyvittatine]
[1]
  viability at 72 h, 100 µM: 52.3%
[1]; CC50 THP-1, 72 h, ATP levels
  CC50 at 72 h: 113 µM
Huh7 cells; 72 h
  concentration at which Huh7 cell viability is reduced: higher than 50 µM
[2]
  viability at 72 h, 50 µM: 73.8%
DENVGFP; [8]
  EC50: 3920 nM
[3]
  inhibition of HIV-1GFP, dose dependence: dose-dependent inhibition of HIV-1
[3]; Homo sapiens, THP-1, 72 h
  EC50: 65.1 µM

From article PMC9029599, “Cytotoxicity and Antiviral Properties of Alkaloids Isolated from Pancratium maritimum” (Toxins, 2022)
